Values quoted from earlier work in Sander's compilation of Henry's law constants (doi:10.1021/je0002282).

Assay: Henry solubility constant Hcp at 298.15 K (mol/(m3 Pa))
Settings: reference: Plyasunov and Shock (2001); cited value

SMILES	Henry solubility constant Hcp
CC(C)C(=O)C(C)C [2,4-dimethyl-3-pentanone]	0.024
CC(C)CC(=O)CC(C)C [2,6-dimethyl-4-heptanone]	0.013
CCCCCC(C)=O [2-heptanone]	0.072
CCCCC(C)=O [2-hexanone]	0.098
CCC(=O)C(C)C [2-methyl-3-pentanone]	0.053
CC(=O)C(C)(C)C [3,3-dimethyl-2-butanone]	0.045
CC(=O)CC(C)C [4-methyl-2-pentanone]	0.069
CC(C)=O [propanone]	0.27

Results, then the compound that gave them:

Henry solubility constant Hcp	SMILES
0.037	CCCCCCCC(C)=O [2-nonanone]
0.058	CCCCCCC(C)=O [2-octanone]
0.13	CCCC(C)=O [2-pentanone]
0.019	CCCCCCCCCC(C)=O [2-undecanone]
0.075	CCCC(=O)CC [3-hexanone]
0.091	CC(=O)C(C)C [3-methyl-2-butanone]
0.11	CCC(=O)CC [3-pentanone]
0.061	CCCC(=O)CCC [4-heptanone]
